Laboratory results taken from PubChem BioAssay (NCI).
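Where inhibition never reached the appropriate level, the endpoint shown equals the highest concentration tested. Otherwise, values were interpolated linearly from a five-concentration, 48-hour dose response in 96-well plates. At the GI50, growth is halved. TGI denotes the concentration required for complete inhibition of growth.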

Columns and labels:
Assay in all cases: DTP human tumour cell line panel, 48 h
HCC-2998 colon = system: HCC-2998 colon
OVCAR-3 ovarian = system: OVCAR-3 ovarian
OVCAR-5 ovarian = system: OVCAR-5 ovarian
SK-MEL-2 melanoma = system: SK-MEL-2 melanoma
NCI-H460 lung = system: NCI-H460 lung
HT29 colon = system: HT29 colon
CAKI-1 renal = system: CAKI-1 renal
OVCAR-4 ovarian = system: OVCAR-4 ovarian
SF-539 CNS = system: SF-539 CNS
MDA-MB-231 breast = system: MDA-MB-231 breast

CC(=O)Oc1cc2c(cc1OC(C)=O)C1(C)CCC2(C)c2cc(OC(C)=O)c(OC(C)=O)cc21
TGI (HCC-2998 colon): 71.9 µM
TGI (OVCAR-3 ovarian): 29.7 µM
TGI (OVCAR-5 ovarian): 80.9 µM
TGI (SK-MEL-2 melanoma): 66.4 µM
TGI (NCI-H460 lung): 50 µM
TGI (HT29 colon): > 100 µM
TGI (CAKI-1 renal): 90.5 µM
TGI (OVCAR-4 ovarian): 32.1 µM

Cn1c(Cl)c(/C=C2/C(=O)Nc3ccccc32)c2ccccc21
GI50 (OVCAR-3 ovarian): 0.204 µM
TGI (OVCAR-3 ovarian): 1.26 µM
GI50 (OVCAR-5 ovarian): 3.85 µM
TGI (OVCAR-5 ovarian): 27.8 µM
GI50 (SF-539 CNS): 0.17 µM
TGI (SF-539 CNS): 1.06 µM
GI50 (SK-MEL-2 melanoma): 2.32 µM
TGI (SK-MEL-2 melanoma): 26.1 µM
GI50 (MDA-MB-231 breast): 0.588 µM
TGI (MDA-MB-231 breast): 12.7 µM
GI50 (NCI-H460 lung): 0.727 µM
TGI (NCI-H460 lung): > 32.2 µM
GI50 (HT29 colon): 0.144 µM
TGI (HT29 colon): > 100 µM
GI50 (CAKI-1 renal): 0.603 µM
TGI (CAKI-1 renal): 17.9 µM
GI50 (OVCAR-4 ovarian): 2.62 µM
TGI (OVCAR-4 ovarian): > 46.7 µM

CC(C)CNc1nc(-c2ccccc2Cl)nc2ccccc12
GI50 (HCC-2998 colon): 19.8 µM
TGI (HCC-2998 colon): 35.9 µM
GI50 (OVCAR-3 ovarian): 17 µM
TGI (OVCAR-3 ovarian): 31.2 µM
GI50 (OVCAR-5 ovarian): 18.6 µM
TGI (OVCAR-5 ovarian): 35.2 µM
GI50 (SK-MEL-2 melanoma): 23.5 µM
TGI (SK-MEL-2 melanoma): 63.4 µM
GI50 (NCI-H460 lung): 18.3 µM
TGI (NCI-H460 lung): 36.1 µM
GI50 (CAKI-1 renal): 15 µM
TGI (CAKI-1 renal): 32.7 µM
GI50 (OVCAR-4 ovarian): 17.1 µM
TGI (OVCAR-4 ovarian): 50.5 µM

CCCCCCCCCCCCCP(=O)(O)O
TGI (HCC-2998 colon): > 100 µM
TGI (OVCAR-3 ovarian): > 100 µM
TGI (OVCAR-5 ovarian): > 100 µM
TGI (SF-539 CNS): > 100 µM
TGI (SK-MEL-2 melanoma): > 100 µM
TGI (NCI-H460 lung): > 100 µM
TGI (HT29 colon): > 100 µM
TGI (OVCAR-4 ovarian): > 100 µM

COc1ccc2c(c1)C(=O)CCc1cc(OC)c(OC)c(OC)c1-2
GI50 (HCC-2998 colon): < 0.01 µM
TGI (SF-539 CNS): 87.1 µM
GI50 (SK-MEL-2 melanoma): < 0.01 µM
GI50 (MDA-MB-231 breast): < 0.01 µM
TGI (MDA-MB-231 breast): > 100 µM
GI50 (NCI-H460 lung): < 0.01 µM
TGI (NCI-H460 lung): > 100 µM
GI50 (HT29 colon): < 0.01 µM
GI50 (CAKI-1 renal): < 0.01 µM
TGI (CAKI-1 renal): > 100 µM
GI50 (OVCAR-4 ovarian): 0.818 µM
TGI (OVCAR-4 ovarian): > 100 µM

CC(=O)Oc1c(C)c(-c2ccccc2)c(C)c(-c2ccccc2)c1C(=S)c1ccccc1
TGI (HCC-2998 colon): > 100 µM
TGI (OVCAR-3 ovarian): > 100 µM
TGI (OVCAR-5 ovarian): > 100 µM
TGI (SF-539 CNS): > 100 µM
TGI (SK-MEL-2 melanoma): > 100 µM
TGI (NCI-H460 lung): > 100 µM
TGI (HT29 colon): > 100 µM

CCOC(=O)[CH-]C(=O)C12CC3CC(CC(C3)C1)C2.CCOC(=O)[CH-]C(=O)C12CC3CC(CC(C3)C1)C2.CC[O-].CC[O-].[Ti+4]
GI50 (OVCAR-3 ovarian): > 100 µM
TGI (OVCAR-3 ovarian): > 100 µM
GI50 (SF-539 CNS): > 100 µM
TGI (SF-539 CNS): > 100 µM
GI50 (NCI-H460 lung): > 100 µM
TGI (NCI-H460 lung): > 100 µM
GI50 (HT29 colon): > 100 µM
TGI (HT29 colon): > 100 µM
GI50 (CAKI-1 renal): > 100 µM
TGI (CAKI-1 renal): > 100 µM
GI50 (OVCAR-4 ovarian): > 100 µM
TGI (OVCAR-4 ovarian): > 100 µM

O=C1C=C(Nc2ccccc2C(=O)CC(=O)C(=O)Nc2cccc([N+](=O)[O-])c2)c2ccccc2C1=O
TGI (HCC-2998 colon): > 100 µM
TGI (OVCAR-3 ovarian): 55.2 µM
TGI (OVCAR-5 ovarian): > 100 µM
TGI (SF-539 CNS): > 100 µM
TGI (SK-MEL-2 melanoma): > 100 µM
TGI (NCI-H460 lung): > 100 µM
TGI (HT29 colon): > 100 µM
TGI (CAKI-1 renal): > 100 µM
TGI (OVCAR-4 ovarian): > 100 µM

Nc1ncc(-c2cnn(C3CCNCC3)c2)cc1-c1nc2cc(Cl)ccc2o1
GI50 (HCC-2998 colon): 1.47 µM
TGI (HCC-2998 colon): 2.82 µM
GI50 (OVCAR-3 ovarian): 1.73 µM
TGI (OVCAR-3 ovarian): 3.26 µM
GI50 (OVCAR-5 ovarian): 1.77 µM
TGI (OVCAR-5 ovarian): 3.22 µM
GI50 (SF-539 CNS): 1.55 µM
TGI (SF-539 CNS): 2.91 µM
GI50 (MDA-MB-231 breast): 1.66 µM
TGI (MDA-MB-231 breast): 3.23 µM
GI50 (NCI-H460 lung): 1.68 µM
TGI (NCI-H460 lung): 3.28 µM
GI50 (HT29 colon): 0.352 µM
TGI (HT29 colon): 1.25 µM
GI50 (CAKI-1 renal): 1.58 µM
TGI (CAKI-1 renal): 3.09 µM

O=C(Nc1ccc(Cl)cc1)C1C(=O)C(=O)N(c2ccc(Cl)cc2)C1=O (stereo unspecified)
TGI (OVCAR-3 ovarian): > 100 µM
TGI (OVCAR-5 ovarian): > 100 µM
TGI (SF-539 CNS): > 100 µM
TGI (SK-MEL-2 melanoma): > 100 µM
TGI (NCI-H460 lung): > 100 µM
TGI (HT29 colon): > 100 µM
TGI (CAKI-1 renal): > 100 µM

Nc1n[nH]c2cccc(C#Cc3cccc(NC(=O)c4cccc(C(F)(F)F)c4)c3)c12
GI50 (HCC-2998 colon): 2.43 µM
TGI (HCC-2998 colon): 7.31 µM
GI50 (OVCAR-3 ovarian): 5.07 µM
TGI (OVCAR-3 ovarian): 17.3 µM
GI50 (OVCAR-5 ovarian): 2.21 µM
TGI (OVCAR-5 ovarian): 14 µM
GI50 (SF-539 CNS): 1.19 µM
TGI (SF-539 CNS): 3.47 µM
GI50 (SK-MEL-2 melanoma): 1.36 µM
TGI (SK-MEL-2 melanoma): 6.95 µM
GI50 (MDA-MB-231 breast): 1.5 µM
TGI (MDA-MB-231 breast): 6.5 µM
GI50 (NCI-H460 lung): 4.11 µM
TGI (NCI-H460 lung): 15.7 µM
GI50 (HT29 colon): 2.98 µM
TGI (HT29 colon): 12.8 µM
GI50 (OVCAR-4 ovarian): 3.67 µM
TGI (OVCAR-4 ovarian): 17.7 µM

C[C@]12CC=CC(=O)[C@@]1(C)CCC(=O)C2
TGI (HCC-2998 colon): > 100 µM
TGI (OVCAR-3 ovarian): > 100 µM
TGI (OVCAR-5 ovarian): > 100 µM
TGI (SF-539 CNS): > 100 µM
TGI (SK-MEL-2 melanoma): > 100 µM
TGI (NCI-H460 lung): > 100 µM
TGI (HT29 colon): > 100 µM
TGI (CAKI-1 renal): > 100 µM
TGI (OVCAR-4 ovarian): > 100 µM

C=C(C)[C@@H]1CC[C@]2(COCCCN)CC[C@]3(C)[C@H](CC[C@@H]4[C@@](C)(CCCNCCCN)[C@H](C(=C)C)CC[C@]43C)[C@@H]12
GI50 (OVCAR-3 ovarian): 1.81 µM
TGI (OVCAR-3 ovarian): 3.36 µM
GI50 (OVCAR-5 ovarian): 1.71 µM
TGI (OVCAR-5 ovarian): 3.12 µM
GI50 (SF-539 CNS): 1.76 µM
TGI (SF-539 CNS): 3.21 µM
GI50 (SK-MEL-2 melanoma): 1.89 µM
TGI (SK-MEL-2 melanoma): 3.71 µM
GI50 (MDA-MB-231 breast): 1.8 µM
TGI (MDA-MB-231 breast): 3.29 µM
GI50 (NCI-H460 lung): 1.8 µM
TGI (NCI-H460 lung): 3.44 µM
GI50 (CAKI-1 renal): 1.75 µM
TGI (CAKI-1 renal): 3.13 µM
GI50 (OVCAR-4 ovarian): 1.72 µM
TGI (OVCAR-4 ovarian): 3.17 µM

Cc1ccc(S(=O)(=O)OC2CC=CC2)cc1
TGI (HCC-2998 colon): > 100 µM
TGI (OVCAR-3 ovarian): > 100 µM
TGI (OVCAR-5 ovarian): > 100 µM
TGI (SK-MEL-2 melanoma): > 100 µM
TGI (NCI-H460 lung): > 100 µM
TGI (HT29 colon): > 100 µM
TGI (CAKI-1 renal): > 100 µM
TGI (OVCAR-4 ovarian): > 100 µM

NC1=NN(c2ccccc2)C(=O)C1C(=O)CCC(=O)Nc1cccc(Cl)c1 (stereo unspecified)
TGI (HCC-2998 colon): > 100 µM
TGI (OVCAR-3 ovarian): > 100 µM
TGI (OVCAR-5 ovarian): > 100 µM
TGI (SF-539 CNS): > 100 µM
TGI (SK-MEL-2 melanoma): > 100 µM
TGI (NCI-H460 lung): > 100 µM
TGI (HT29 colon): > 100 µM
TGI (CAKI-1 renal): > 100 µM
TGI (OVCAR-4 ovarian): > 100 µM

O=NNc1ccc2ccccc2n1
TGI (OVCAR-3 ovarian): > 100 µM
TGI (OVCAR-5 ovarian): > 100 µM
TGI (SF-539 CNS): > 100 µM
TGI (SK-MEL-2 melanoma): > 100 µM
TGI (MDA-MB-231 breast): > 100 µM
TGI (NCI-H460 lung): > 100 µM
TGI (HT29 colon): > 100 µM
TGI (CAKI-1 renal): > 100 µM
TGI (OVCAR-4 ovarian): > 100 µM

CC(C)C(O)(C(C)C)C(C)C
TGI (OVCAR-3 ovarian): > 100 µM
TGI (OVCAR-5 ovarian): > 100 µM
TGI (SF-539 CNS): > 100 µM
TGI (SK-MEL-2 melanoma): > 100 µM
TGI (MDA-MB-231 breast): > 100 µM
TGI (NCI-H460 lung): > 100 µM
TGI (HT29 colon): > 100 µM
TGI (CAKI-1 renal): > 100 µM
TGI (OVCAR-4 ovarian): > 100 µM

O=C(O)CCCc1ccc2ccc3ccccc3c2c1
TGI (OVCAR-3 ovarian): > 100 µM
TGI (OVCAR-5 ovarian): > 100 µM
TGI (SK-MEL-2 melanoma): > 100 µM
TGI (MDA-MB-231 breast): > 100 µM
TGI (NCI-H460 lung): > 100 µM
TGI (HT29 colon): > 100 µM
TGI (CAKI-1 renal): > 100 µM
TGI (OVCAR-4 ovarian): > 100 µM

COc1ccc(NC(=O)CC/C(CC(=O)c2ccco2)=N/NC(=O)C(N)=O)cc1
TGI (HCC-2998 colon): > 100 µM
TGI (OVCAR-3 ovarian): > 100 µM
TGI (OVCAR-5 ovarian): > 100 µM
TGI (SF-539 CNS): > 100 µM
TGI (SK-MEL-2 melanoma): > 100 µM
TGI (NCI-H460 lung): > 100 µM
TGI (HT29 colon): > 100 µM
TGI (CAKI-1 renal): > 100 µM
TGI (OVCAR-4 ovarian): > 100 µM
